Legend:
HepG2 cells = assay: Cytotoxicity by LDH release in HepG2 cells; assay type: cell-based; settings: 0 to 160 μM
Description: E. coli strain CFT073 and its derivative CFT073ΔcpxA::cat were described previously and maintained on Luria broth (LB) plates at 37°C ([30]). The E. coli PcpxP′-lacZ reporter strain, PAD282, was the gift of Thomas Silhavy (Princeton University, Princeton, NJ, USA) and was maintained on TB plates at 37°C ([31]). HepG2 hepatocellular carcinoma cells were the gift of Andy Yu (Indiana University, Indianapolis, IN) and were grown in RPMI […] medium (Gibco) containing 10% fetal calf serum (HyClone) and 1 mM sodium pyruvate (Sigma) at 37°C with 5% CO2 as described ([31]).
The cytotoxicity of compound 6 for HepG2 cells was determined by LDH release after incubation with the compound in concentrations ranging from 0 to 160 μM for 5 h and 24 h exactly as described ([31]). The IC50 was determined from quadruplicate experiments by the GraphPad Prism 6 software using a nonlinear fit model.

UPEC strain CFT073 [1] = assay type: in vivo, Escherichia coli (in female CBA/J mice); settings: compound 6 trial
Description: Four groups of eight female CBA/J mice were transurethrally inoculated with a target dose of ∼10^8 CFU of either CFT073 or CFT073ΔcpxA::cat. One group was treated with ciprofloxacin (2.5 mg/kg/dose dissolved in sterile distilled water) s.c. 12, 24, 36, 48, and 60 h after inoculation with CFT073 as described ([31]). The untreated CFT073 and CFT073ΔcpxA::cat inoculated groups were given the vehicle control s.c. at 12, 24, 36, 48, and 60 h after inoculation. The compound 6 treated group were given the drug (100 mg/kg) s.c. at 12, 36, and 60 h after inoculation with CFT073 and received the vehicle control s.c. at 24 and 48 h. The animals were sacrificed 4 h after the last treatment (64 h postinoculation) and CFU per milliliter or CFU per gram of tissue was determined in the urine, bladder, and kidneys.
Animal experiments were conducted according to the guidelines of the University of Michigan Institutional Animal Care and Use Committee. For the animal infection experiments, bacterial strains were cultured at 37°C in LB medium overnight with shaking ([30]). Female CBA/J mice (Jackson Laboratories, Bar Harbor, ME) were inoculated transurethrally with a target dose of ∼10^8 CFU of CFT073 or CFT073ΔcpxA::cat. Mice were subsequently treated 12 h later either with the vehicle, ciprofloxacin hydrochloride (PanReac AppliChem ITW Reagents; Jade Scientific), compound 1, compound 6, or compound 26 as described in Results and euthanized 4 h after the last treatment. Bacterial loads of each strain were calculated from the urine, bladder, and kidneys of mice as previously described; the limits of detection for these assays were 100 CFU/mL or 100 CFU/g of urine and tissue, respectively ([33]). Values of 50 CFU/mL or 50 CFU/g were assigned to specimens whose yields were below the limit of detection.
Due to the extreme skewness of the data, natural log transformation was used before the data were analyzed statistically. Descriptive statistics were calculated for all of the log-transformed variables. Statistical comparisons were done using analysis of variance (ANOVA) with follow-up pairwise tests adjusted for multiple comparisons using the Tukey procedure.

CpxR-P = CpxR-P accumulation in CFT073 cultured in human urine (Phos-Tag gel, Western blot, densitometry); assay type: cell-based, Escherichia coli; settings: 150 μM, 5 h, 4 experiments
Description: To examine whether treatment with compound 26 fostered higher accumulation of CpxR-P in CFT073 than in untreated CFT073 or CFT073ΔcpxA::cat, we cultured CFT073 in human urine in the presence of 150 μM compound 26 dissolved in DMSO, and CFT073 and CFT073ΔcpxA::cat in the presence of DMSO alone (hereafter called the CFT073 and CFT073ΔcpxA::cat controls); we chose 150 μM, as this was the approximate trough concentration of compound 6 detected in murine urine after 3 days of treatment. Briefly, the bacteria were grown in LB medium overnight, pelleted, washed, and inoculated into human urine and allowed to grow for 5 h. […] We harvested bacterial cells, made cell lysates, and detected CpxR and CpxR-P by Western blotting with an anti-MBP-CpxR antiserum as described ([31]). […] To compare the samples, the CpxR and CpxR-P bands were quantified by densitometry using samples from 4 of the independent experiments. […]
E. coli CFT073 and CFT073ΔcpxA::cat were cultured overnight at 37°C in 5 mL of LB medium overnight with shaking. […] Densitometry values were determined using Photoshop 2021 (version 22.4.3), and the ratio of CpxR-P to CpxR was analyzed by one-way ANOVA adjusted for multiple comparisons using the Tukey procedure.

UPEC strain CFT073 [2] = assay type: in vivo, Escherichia coli (in female CBA/J mice); settings: compound 26 trial

SMILES | IC50, LDH release (HepG2 cells; 5 h incubation) | IC50 (HepG2 cells; Homo sapiens, 24 h incubation) | CFU of CFT073 recovered in urine vs CFT073-inoculated vehicle control (UPEC strain CFT073 [1]; 8 mice/group, compound 6 100 mg/kg s.c. at 12, 36, 60 h, ciprofloxacin 2.5 mg/kg/dose s.c. at 12, 24, 36, 48, 60 h, sacrifice 64 h) | CFU of CFT073 recovered in bladder vs CFT073-inoculated vehicle control (UPEC strain CFT073 [1]; same regimens) | CFU of CFT073 recovered in kidneys vs CFT073-inoculated vehicle control (UPEC strain CFT073 [1]; same regimens) | increase of the ratio of CpxR-P to CpxR vs CFT073 control (CpxR-P) | increase of the ratio of CpxR-P to CpxR vs CFT073ΔcpxA::cat control (CpxR-P) | recoverable CFU in bladder vs vehicle-treated mice inoculated with CFT073ΔcpxA::cat (UPEC strain CFT073 [2]) | recoverable CFU in kidneys vs vehicle-treated mice inoculated with CFT073ΔcpxA::cat (UPEC strain CFT073 [2]) | recoverable CFU in urine vs vehicle-treated mice inoculated with CFT073ΔcpxA::cat (UPEC strain CFT073 [2]) | recoverable CFU in urine vs CFT073-inoculated vehicle-treated controls (UPEC strain CFT073 [2]; 8 mice/group, compound 26 100 mg/kg s.c. at 12, 36, 60 h, ciprofloxacin 2.5 mg/kg/dose s.c. at 12, 24, 36, 48, 60 h, sacrifice 64 h) | recoverable CFU in bladder vs CFT073-inoculated vehicle-treated controls (UPEC strain CFT073 [2]; same regimens) | recoverable CFU in kidneys vs CFT073-inoculated vehicle-treated controls (UPEC strain CFT073 [2]; same regimens) | recoverable CFU in urine, bladder and kidneys vs ciprofloxacin-treated group (UPEC strain CFT073 [2]; all P > 0.9)
NC1CCCc2c1[nH]c1ccc(F)cc21 (centres unmarked) [compound 6] | could not be calculated | > 33 µM | no effect | no effect | no effect | – | – | – | – | – | – | – | – | –
N[C@@H]1CCCc2c1[nH]c1cc(F)c(F)cc21 [compound 26] | – | – | – | – | – | 1.3 fold | 1.4 fold | significantly lower | significantly lower | trended toward having a lower CFU | significantly lowered | trended toward lowering | trended toward lowering | no significant differences

From paper PMC9045377, “CpxA Phosphatase Inhibitor Activates CpxRA and Is a Potential Treatment for Uropathogenic Escherichia coli in a Murine Model of Infection” (Microbiology Spectrum, 2022)
